US7803557B2, “Methods for identification of eicosapentaenoic acid analogs using anti-inflammatory receptors” (The Brigham and Women's Hospital, Inc., priority 2003, dated 2010)
Read-outs that look alike come from different tables or passages of the source.

How the values were obtained:
[1] = tested on: leukocyte infiltration in zymosan-induced peritonitis; test: Zymosan induced peritonitis (leukocyte infiltration); assay type: in vivo, mouse; conditions: for inhibition of leukocyte recruitment: 100 ng/mouse intravenously, 2 h
Protocol: For peritonitis, 100 ng/mouse of Resolvin E1 or related structures was injected into tail vein and followed by 1 ml zymosan A (1 mg/ml) into the peritoneum. Peritoneal lavages were collected at 2 h and cells were enumerated.
18R-HEPE (100 ng), Resolvin E1 (100 ng), or Indomethacin (100 ng) was injected intravenously into mouse tails followed by zymosan A into the peritoneum. Mice were sacrificed, and peritoneal lavages were collected (2 h) and cells enumerated (n=3).

Reso ER1 [2] = target: T1, Reso ER1 (Homo sapiens, UniProt Q99788); test: [35S]-GTPgS binding assay, membranes expressing Reso ER1; assay type: biochemical; set-up: expressed in transfected cells; conditions: isolated membranes from cells expressing Reso ER1; concentration-dependent
T1 sequence (Q99788 1-373): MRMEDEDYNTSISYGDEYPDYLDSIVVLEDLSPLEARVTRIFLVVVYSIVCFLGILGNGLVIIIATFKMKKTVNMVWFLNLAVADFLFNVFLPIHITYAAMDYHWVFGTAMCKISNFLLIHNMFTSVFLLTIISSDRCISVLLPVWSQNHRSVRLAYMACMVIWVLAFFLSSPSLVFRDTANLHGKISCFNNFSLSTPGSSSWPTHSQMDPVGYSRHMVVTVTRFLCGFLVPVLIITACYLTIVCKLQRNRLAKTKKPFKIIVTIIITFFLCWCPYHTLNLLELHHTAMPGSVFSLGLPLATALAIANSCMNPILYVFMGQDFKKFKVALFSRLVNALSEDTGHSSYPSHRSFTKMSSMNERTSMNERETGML
Protocol: HEK293 cells stably expressing human Reso ER1 were homogenized in ice-cold TED buffer (20 mM Tris-HCl pH7.5/1 mM EDTA/5 mM MgCl2/1 mM DTT). Membrane fraction ([…]) was incubated in […] of GTP-binding buffer (50 mM Hepes, pH7.5/100 mM NaCl/1 mM EDTA/5 mM MgCl2/1 mM DTT) containing 0.1 nM [^35S]-GTPgS (>1000 Ci/mmol, Amersham) and […] for 30 min at 30° C. The bound and unbound [35S]-GTPgS was separated by rapid filtration through GF/C filters, and counted by liquid scintillation. Nonspecific binding was determined in the presence of […] unlabeled GTPgS. Basal [^35S]-GTP-gS binding was 81.6+1.5 cpm/mg protein.

mouse splenic CD11c+ DCs = test: IL-12p40 production by isolated splenic CD11c+ DCs stimulated with STAg; assay type: cell-based
Protocol: (§1) Experiments were performed essentially as in (19). STAg was prepared from sonicated T. gondii (RH strain) tachzoytes. For isolated DC experiments, 70-85% CD11c positive DCs were isolated from spleen. CD11c+DC suspensions (1.0×10^6 cells/ml) were spread into 96-well plates and incubated for 24 h with Resolvin E1 before the addition of STAg ([…]). After overnight culture, supernatants were collected and IL-12p40 was measured with a sandwich ELISA. For in vivo treatments, C57BL/6 mice (n=3 per group) were injected intravenously with 100 ng Resolvin E1. After 18 h the animals were challenged intraperitoneally with PBS (0.2 ml/mouse), STAg (5 mg/ml) and sacrificed after an additional 6 h. CD11c+DCs were isolated from spleen and IL12-p40 secretion was measured at 24 h. For DC migration, Splenic frozen section from mice treated as above but given […] of Resolvin E1 or vehicle were stained for CD11c and counterstained with hematoxylin.
Chemically synthesized siRNA for mouse Reso ER1 (5′-[…]dTdT-3′) and Non-specific control IX siRNA (5′-[…]-3′) were from Dharmacon Research. Spleen cells (1.0×10^6 cells/ml) were transfected using Chariot (Active Motif) following manufacturers' instructions. Briefly, siRNA was mixed with Chariot transfection reagent and incubated at room temperature for 30 minutes. […]

[3] = tested on: HEK-Reso ER1 stable transformants; test: Calcium mobilization in HEK-Reso ER1 stable transformants; assay type: cell-based, human
[4] = tested on: human peripheral blood monocytes; test: Calcium mobilization in human peripheral blood monocytes; assay type: cell-based
HEK293-Reso ER1 cells = test: MAP kinase (ERK) activation in HEK293-Reso ER1 cells; assay type: cell-based, human
Protocol: (§2) MAP kinase activation in monocytes and HEK293 cells after treatment with 100 nM of each compound was determined. After incubations, cells were lysed in cold lysis buffer (50 mM Tris-HCl, pH 8.0, 150 mM NaCl, 0.5 mM EDTA, 1.0% NP-40, 0.5% sodium deoxycolate, 10 mM NaF, 10 mM sodium pyrophosphate) containing protease inhibitor cocktail (Sigma). […] of protein was separated on SDS-PAGE and immunoblot was performed using anti-phospho-p44/42 MAP kinase (Cell Signaling) and anti-ERK (Santa Cruz) antibodies. For PTX treatment, HEK-Reso ER1 cells were incubated with or without PTX (200 ng/ml) for 24 h at 37° C. and ERK activation was monitored by addition of Resolvin E1 (100 nM) for 5 min.
(§3) FIG. 4d illustrate effects of PTX on Resolvin E1 induced activation and NF-kB inhibition. In—(a) HEK-hReso ER1 cells were incubated with or without PTX (200 ng/ml) for 24 h at 37 C and ERK activation was monitored by addition of Resolvin E1 (100 nM) for 5 min. In (b) HEK293 cells were transiently transfected with pcDNA-hReso ER1, pNF-kB-luciferase and pRL-TK. After 24 h with or without PTX (200 ng/ml), cells were exposed to Resolvin E1 (50 nM) for 30 min, stimulated with TNF-a (1.0 ng/ml) for 5 h, and luciferase activity was measured.

[5] = tested on: leukocyte infiltration in TNF-a induced dorsal air pouch; test: Murine dorsal air-pouch model (TNF-a induced leukocyte infiltration); assay type: in vivo, mouse; set-up: inhibition of leukocyte recruitment: dose or concentration left out as unconfirmed
Protocol: Dorsal air pouches were raised on male FvB mice (6-8 wk) by injecting 3 ml of sterile air subcutaneously on days 0 and 3. On day 6, 100 ng/mouse of compounds were injected into tail vein. Inflammation in the air-pouch was induced by intrapouch injection of mouse recombinant TNF-a (100 ng/pouch), and pouch lavages were collected at 4 h and cells were enumerated.

Reso ER1 [6] = target: T1, Reso ER1; test: NF-kB reporter gene assay, HEK293 cells transfected with Reso ER1; assay type: cell-based; set-up: expressed in transfected cells; host or cells: HEK293, transient transfection with pcDNA3-Reso ER1
Protocol: HEK293 cells (1.0′10^5 cells) were transiently transfected with 50 ng pNF-kB-luciferase (Stratagene), 500 ng of either pcDNA3 or pcDNA3-GPCRs and the internal standard pRL-TK (Promega) using Superfect transfection reagent (Qiagen). After 24 h, cells were exposed to the test compounds for 30 min, stimulated with recombinant human TNF-a (1.0 ng/ml, BD Pharmingen) for 5 h. Luciferase activity was measured by the Dual-Luciferase reporter assay system (Promega). Basal induction of luciferase activity by TNF-a was >150-fold in this system. Efficient expression of GPCRs to the cell surface was observed by immunostaining using HA-tagged GPCR constructs. For PTX treatment, HEK293 cells were treated with PTX (200 ng/ml) for 24 h before stimulation.
as §3

splenic CD11c+ DCs = test: In vivo activation of spleen dendritic cells with pathogen extract (STAg); set-up: species or system mouse; DC migration into T cell areas of the spleen: dose or concentration left out as unconfirmed; conditions: STAg challenge
Protocol: as §1

[7] = tested on: mock-transfected HEK293 cells; test: MAP kinase (ERK) activation in mock-transfected HEK293 cells; assay type: cell-based, human; conditions: 100 nM
Protocol: as §2

[8] = target: recombinant LTB4 receptor BLT 1 (Homo sapiens, UniProt Q15722); conditions: higher concentrations; reference (7); cited from earlier work
[9] = tested on: peripheral blood monocytes; test: MAP kinase (ERK) activation in peripheral blood monocytes; assay type: cell-based, human; conditions: 100 nM
Protocol: as §2

[10] = LC-MS/MS analysis of Resolvin E1 in human plasma; assay type: in vivo; conditions: oral, healthy human volunteers given EPA and aspirin, 6 donors
Protocol: Human plasma samples were collected at 4 hours after oral administration of fish oil supplement (Fish Oil Concentrate, Walgreens) containing EPA (1 g) and DHA (0.7 g) followed by aspirin (160 mg) at 3 h in six healthy volunteers. Plasma samples were extracted by C18 solid phase extraction with d4-LTB4 (Cascade) as internal standard for LC-MS/MS analysis (7) using a Finnigan LCQ liquid chlomatography ion trap tandem mass spectrometer equipped with a LUNA C18-2 (100×2 mm×[…]) column and UV diode array detector using mobile phase (methanol:water:acetate at 65:35:0.01) from 0 to 8 min, ramped to methanol 8 to 30 min, with a 0.2 ml/min flow rate.

[11] = tested on: leukocyte infiltration in TNF-a induced dorsal air pouch; conditions: 1.0 mg/mouse, reference (9); cited from earlier work

recombinant LTB4 receptor BLT 1, sequence (Q15722 whole entry): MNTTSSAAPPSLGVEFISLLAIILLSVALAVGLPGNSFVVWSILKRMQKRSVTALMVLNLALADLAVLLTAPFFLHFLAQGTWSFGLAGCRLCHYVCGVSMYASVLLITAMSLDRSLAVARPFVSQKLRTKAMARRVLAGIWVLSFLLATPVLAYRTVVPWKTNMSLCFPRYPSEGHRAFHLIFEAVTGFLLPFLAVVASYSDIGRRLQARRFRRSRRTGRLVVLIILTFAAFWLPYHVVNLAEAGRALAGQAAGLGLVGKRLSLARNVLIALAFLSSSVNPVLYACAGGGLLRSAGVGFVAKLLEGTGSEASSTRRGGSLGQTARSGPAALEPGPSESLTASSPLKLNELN

CCC(O)C=CC=CCC(O)C=CC=CC=CC(O)CCCC(=O)O (single isomer, unassigned) [6-trans,14-trans isomer]
reduced potency for reducing leukocyte infiltration ([1]; versus Resolvin E1): ~70%

CC[C@H](O)/C=C/C=C\C[C@@H](O)/C=C/C=C/C=C\[C@@H](O)CCCC(=O)O (single isomer, unassigned) [18S isomer]
activity compared with native Resolvin E1 containing 18R [1]: essentially equivalent activity

CC[C@@H](O)/C=C/C=C\C[C@@H](O)/C=C/C=C/C=C\[C@@H](O)CCCC(=O)O [Resolvin E1, 5S,12R,18R-trihydroxy-6Z,8E,10E,14Z,16E-eicosapentaenoic acid]
specific [35S]-GTPgS binding (Reso ER1 [2]): increased selectively | IL-12p40 production by STAg (mouse splenic CD11c+ DCs; isolated mouse splenic CD11c+ DCs, within the nanomolar range): markedly inhibited | action in regulating IL-12 production from DCs after siRNA specific for mouse Reso ER1 (mouse splenic CD11c+ DCs; spleen cells transfected with siRNA, STAg stimulation): eliminated | calcium mobilization [3]: did not evoke a calcium mobilization | inhibition of calcium mobilization by 100 nM LTB4 ([4]; 100 nM, data not shown, cell type not restated): did not inhibit calcium mobilization | calcium mobilization ([4]; human peripheral blood monocytes): did not evoke a calcium mobilization | phosphorylation of ERK MAP kinase (HEK293-Reso ER1 cells; 100 nM, HEK293-Reso ER1 cells): increased phosphoryation | Resolvin E1 dependent ERK activation after pertussis toxin (HEK293-Reso ER1 cells; PTX 200 ng/ml 24 h, Resolvin E1 100 nM, 5 min): abolished | inhibition of leukocyte infiltration ([5]; 100 ng/mouse, tail vein, TNF-a induced dorsal air pouch): 50-70% | EC50 (Reso ER1 [6]; read-out: EC50, inhibition of TNF-a induced NF-kB activation): ~1 nM | IL-12 production in vivo (splenic CD11c+ DCs; 100 ng intravenously, IL-12p40 from splenic CD11c+ DCs): blocked IL-12 production | DC migration into T cell areas of the spleen (splenic CD11c+ DCs; Resolvin E1, CD11c staining): blocked | phosphorylation of ERK MAP kinase [7]: not in mock-transfected HEK293 cells | concentration at which it interacts with recombinant BLT1 [8]: ~0.5 mM | inhibition of leukocyte recruitment [1]: 50-60% | phosphorylation of ERK MAP kinase [9]: increased phosphoryation | concentration at 4 h [10]: 0.1 to 0.4 ng/mL

CC(=O)Oc1ccccc1C(=O)O [aspirin, reference compound]
inhibition of leukocyte recruitment [11]: 70% | inhibition at 1000 µM (Reso ER1 [6]; HEK293, 1 mM, read-out: non-receptor dependent inhibition of NF-kB): 26.2%

C[C@@H]1C[C@H]2[C@@H]3CCC4=CC(=O)C=C[C@]4(C)[C@@]3(F)[C@@H](O)C[C@]2(C)[C@@]1(O)C(=O)CO [dexamethasone, reference compound]
inhibition of leukocyte recruitment ([5]; local administration, dorsal air pouch): 60%

COc1ccc2c(c1)c(CC(=O)O)c(C)n2C(=O)c1ccc(Cl)cc1 [indomethacin, reference compound]
inhibition of leukocyte recruitment [1]: 25%
